{
  "source": "paper PMC3390971",
  "about": "(Clinical Cancer Research, 2010)",
  "key": {"HT29 MCL [1]": {"tested_on": "HT29 MCL"}, "[2]": {"assay": "Animal toxicity: maximum tolerated dose in mice", "assay_type": "in vivo"}, "[3]": {"assay": "Mouse plasma protein binding", "assay_type": "in vitro ADME", "details": "mean ± SEM"}, "HT29 MCL [4]": {"tested_on": "HT29 MCL", "assay": "Diffusion in multicellular layers", "details": "higher than TPZ"}, "HT29 cells [5]": {"tested_on": "HT29 cells", "assay": "Oxygen dependence of cytotoxicity and metabolism in stirred cell suspensions", "assay_type": "cell-based, human", "details": "mean ± SEM"}, "[6]": {"details": "mouse, in vivo"}, "[7]": {"assay": "Animal toxicity: maximum tolerated dose in rats", "assay_type": "in vivo"}, "[8]": {"assay": "Plasma pharmacokinetics in mice", "details": "male CD-1 nude mice, single i.p. dose at 75% of MTD"}, "[9]": {"details": "cited from earlier work"}, "[10]": {"details": "cited from earlier work", "remark": "listed apart in the source"}, "8 human tumor cell lines": {"tested_on": "8 human tumor cell lines", "assay": "In vitro growth inhibition", "assay_type": "cell-based", "details": "8 cell lines"}, "[11]": {"details": "cited from earlier work", "remark": "listed apart in the source"}, "HT29 cells [12]": {"tested_on": "HT29 cells", "details": "HT29 cell suspensions, mean ± SEM"}, "HT29 cells [13]": {"tested_on": "HT29 cells", "assay": "Clonogenic cell killing in stirred single cell suspensions", "assay_type": "cell-based, human", "details": "anoxia, mean ± SEM"}, "[14]": {"details": "cited from earlier work", "remark": "listed apart in the source"}, "[15]": {"tested_on": "HT29, SiHa and H460 xenografts", "assay": "Excision", "assay_type": "in vivo, CD-1 nude mice", "details": "three xenograft models, 75% of MTD"}, "SiHa xenografts": {"tested_on": "SiHa xenografts", "assay": "SiHa xenograft tumor regrowth assay with fractionated radiation", "assay_type": "in vivo, CD-1 nude mice", "details": "for Radiation-induced tumor regrowth delay: 30 min before each of 2 Gy × 8"}, "[16]": {"details": "mouse; cited from earlier work"}, "HT29 cells [17]": {"tested_on": "HT29 cells", "details": "cited from earlier work"}},
  "note": "Values joined by “and” are separate entries in the source; they are usually repeats but may differ in a detail not shown here. Equal entries are not always repeated. Where two headings read alike, the source gives them in different places. Marks after values point to notes of the source that are not given here.",
  "data": [
    {"smiles": "[O-][n+]1nc(CCCN2CCOCC2)[n+]([O-])c2cc3c(cc21)CCC3", "note": "[SN30000]", "values": [
      {"measurement": "D, diffusion coefficient in HT29 MCLs and tumors", "setting": "HT29 MCL [1]", "result": "1.26 ± 0.11 (6) ×10^−6 cm^2s^−1"},
      {"measurement": "MTD for bi-daily dosing for 4 consecutive days (BID1-4)", "setting": "[2]; i.p., 9 am and 3 pm, 4 consecutive days, CD-1 nude mice", "result": 237, "unit": "µmol/kg"},
      {"measurement": "Maximum tolerated dose (MTD)", "setting": "[2]; single i.p. administration, male CD-1 nude mice", "result": 275, "unit": "mg/kg"},
      {"measurement": "MTD (molar dose) relative to TPZ", "setting": "[2]; single i.p., male CD-1 nude mice, higher than TPZ", "result": 4.2, "unit": "fold"},
      {"measurement": "θ, free fraction of drug in plasma in mice", "setting": "[3]", "result": "83 ± 1", "unit": "%"},
      {"measurement": "DMCL relative to TPZ", "setting": "HT29 MCL [4]", "result": 3, "unit": "fold"},
      {"measurement": "KO2, O2 concentration to halve anoxic cytotoxic potency", "setting": "HT29 cells [5]", "result": "1140 ± 240", "unit": "nM"},
      {"measurement": "i.p. bioavailability", "setting": "[6]", "result": 77, "unit": "%"},
      {"measurement": "MTD", "setting": "[7]; Sprague-Dawley rats, both sexes, single i.p. dose", "result": 316, "unit": "µmol/kg"},
      {"measurement": "AUCp∞, area under the plasma (total drug) concentration-time curve extrapolated to infinity in mice", "setting": "[8]", "result": 79, "unit": "µM·h"},
      {"measurement": "t½, plasma terminal half life in mice", "setting": "[8]", "result": "32 min and 32.1 min"},
      {"measurement": "Log P, pH 7.4 (octanol:water partition coefficient)", "setting": "[9]", "result": "0.50 ± 0.05 ^c"},
      {"measurement": "E(1) One electron reduction potential", "setting": "[10]", "result": "−399 ± 8 ^c mV"},
      {"measurement": "One-electron reduction potential difference (higher than TPZ)", "setting": "[10]", "result": 57, "unit": "mV"},
      {"measurement": "HCR (aerobic IC50 / anoxic IC50) compared across compounds", "setting": "8 human tumor cell lines", "result": "consistently higher"},
      {"measurement": "Potency under anoxia (hypoxic IC50) compared with TPZ", "setting": "8 human tumor cell lines; 4 h exposure, anoxia", "result": "consistently more potent than TPZ"},
      {"measurement": "Solubility in culture medium at 37°C", "setting": "[11]", "result": "48.5 ^c mM"},
      {"measurement": "kmet0, first order rate constant for prodrug metabolism under anoxia", "setting": "HT29 cells [12]", "result": "1.53 ± 0.21 min^−1 and 1.53 ± 0.21 (8) min^−1"},
      {"measurement": "γ, proportionality constant in PD model (anoxic clonogenic potency coefficient)", "setting": "HT29 cells [13]", "result": "5.34 ± 0.89 (13) ×10^−5 µM^−2"},
      {"measurement": "Calculated amine pKa", "setting": "[14]", "result": "7.1 ^c"},
      {"measurement": "Therapeutic gain over TPZ with single dose radiation", "setting": "[15]", "result": "~3", "unit": "fold"},
      {"measurement": "Radiation-induced tumor regrowth delay", "setting": "SiHa xenografts; 176 µmol/kg/dose, p=0.0058 log rank test", "result": "highly significant increases"},
      {"measurement": "Activity of drug alone in tumor regrowth assay", "setting": "SiHa xenografts; 263 µmol/kg/dose, 8-dose schedule, without radiation", "result": "not significantly active"},
      {"measurement": "Radiation-induced tumor regrowth delay", "setting": "SiHa xenografts; 263 µmol/kg/dose, p=0.0004 log rank test", "result": "highly significant increases"}
    ]},
    {"smiles": "Nc1n[n+]([O-])c2ccccc2[n+]1[O-]", "note": "[TPZ, tirapazamine, reference compound]", "values": [
      {"measurement": "D, diffusion coefficient in HT29 MCLs and tumors", "setting": "HT29 MCL [1]; human", "result": "0.40 ± 0.02 (12) ×10^−6 cm^2s^−1"},
      {"measurement": "MTD at 4 days", "setting": "[2]; CD-1 nu/nu, mouse, in vivo, ip", "result": 75, "unit": "µmol/kg"},
      {"measurement": "MTD at 28 days", "setting": "[2]; male, CD-1 nu/nu, mouse, in vivo, ip", "result": 178, "unit": "µmol/kg"},
      {"measurement": "θ, free fraction of drug in plasma in mice", "setting": "[16]", "result": "100 ± 5.3 ^f %"},
      {"measurement": "MTD at 28 days", "setting": "[7]; both, Sprague-Dawley, rat, in vivo, ip", "result": 178, "unit": "µmol/kg"},
      {"measurement": "Log P, pH 7.4 (octanol:water partition coefficient)", "setting": "[9]", "result": "−0.34 ± 0.02 ^a"},
      {"measurement": "E(1) One electron reduction potential", "setting": "[10]", "result": "−456 ± 8 ^a mV"},
      {"measurement": "γ, proportionality constant in PD model (anoxic clonogenic potency coefficient)", "setting": "HT29 cells [13]", "result": "2.41± 0.13 (72) ×10^−5 µM^−2"},
      {"measurement": "KO2, O2 concentration to halve anoxic cytotoxic potency", "setting": "HT29 cells [17]", "result": "1.21 ± 0.09 ^d µM"}
    ]}
  ]
}
